Laboratory results from patent publication US7939559B2, “Lipase inhibitors” (Suntory Holdings Limited, priority 2004, dated 2011).
“Also recorded” adds a separate entry of the source.

Biological target: T1, porcine pancreatic lipase (Sus scrofa, UniProt P00591)
T1 construct: purchased Sigma
T1 sequence (P00591 1-450): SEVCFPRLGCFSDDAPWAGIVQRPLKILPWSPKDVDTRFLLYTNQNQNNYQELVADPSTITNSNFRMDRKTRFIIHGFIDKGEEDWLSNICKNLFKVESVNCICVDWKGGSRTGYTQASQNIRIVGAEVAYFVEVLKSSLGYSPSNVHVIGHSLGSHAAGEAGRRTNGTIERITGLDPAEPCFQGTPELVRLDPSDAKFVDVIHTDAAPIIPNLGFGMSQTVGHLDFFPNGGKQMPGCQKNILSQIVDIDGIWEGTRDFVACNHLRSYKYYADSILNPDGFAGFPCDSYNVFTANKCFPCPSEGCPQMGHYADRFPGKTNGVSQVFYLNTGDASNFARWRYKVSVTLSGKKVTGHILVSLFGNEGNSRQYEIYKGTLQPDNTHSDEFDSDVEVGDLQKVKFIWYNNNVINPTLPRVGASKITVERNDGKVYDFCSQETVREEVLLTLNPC
Assay: Lipase inhibitory activity assay (4-MUO fluorescent substrate)
Assay type: biochemical
Details: for IC50 / lipase inhibitory activity (in words): porcine pancreatic lipase; for IC50: substrate 4-MUO, 25° C., 30 minutes, pH 8.0; for lipase inhibitory activity (in words): 4-MUO, comparison among major tea catechins
Description: A lipase activity assay was performed by using the oleate ester of fluorescent 4-methylumbelliferone (4-MUO) as a substrate to measure the fluorescence of 4-methylumbelliferone produced by reaction.
The buffer used for the assay was 13 mM Tris-HCl (pH 8.0) containing 150 mM NaCl, 1.36 mM CaCl2. The enzyme assay was performed using a 0.1 M solution of the substrate 4-MUO (Sigma) in DMSO diluted 1:1000 in said buffer and a solution of porcine pancreatic lipase (Sigma) prepared at 400 U/ml also in said buffer.
An enzymatic reaction was started by adding 25 μl of the lipase/buffer solution after 50 μl of the 4-MUO/buffer solution and 25 μl of distilled water (or an aqueous solution of each sample) were added and mixed in a 96-well microplate at 25° C. After the reaction was performed for 30 minutes, the reaction was stopped by adding 100 μl of a 0.1 M citrate buffer (pH 4.2) and the fluorescence of 4-methylumbelliferone produced by the reaction (excitation 355 nm, emission 460 nm) was measured using a fluorescence plate reader (Fluoroskan Asent CF from Labsystems).
The inhibitory activity of each test sample was determined as IC50(μM), i.e. the amount of the sample giving 50% inhibition of the activity of the control (distilled water).

| Compound | lipase inhibitory activity relative to GCG (12) (fold higher activity than (−)-gallocatechin 3-O-gallate) | IC50 | lipase inhibitory activity (in words) | lipase inhibitory activity relative to EGCG (6) (fold higher activity than (−)-epigallocatechin 3-O-gallate) |
| --- | --- | --- | --- | --- |
| O=C(Oc1cc(O)cc2c1C[C@H](OC(=O)c1cc(O)c(O)c(O)c1)[C@@H](c1cc(O)c(O)c(O)c1)O2)c1cc(O)c(O)c(O)c1 [compound 13, (−)-gallocatechin 3,5-di-O-gallate] | about twice higher | 213 nM | – | – |
| Oc1cc(O)c2c(c1)O[C@H](c1ccc(O)c(O)c1)[C@@H](O)C2 [compound 9, (+)-catechin] | – | > 20000 nM | did not show lipase inhibitory activity | – |
| O=C(Oc1cc(O)cc2c1C[C@@H](OC(=O)c1cc(O)c(O)c(O)c1)[C@@H](c1cc(O)c(O)c(O)c1)O2)c1cc(O)c(O)c(O)c1 [compound 7, (−)-epigallocatechin 3,5-di-O-gallate] | – | 98 nM | – | about 3.5 times |
| O=C(O[C@@H]1Cc2c(O)cc(O)cc2O[C@H]1c1cc(O)c(O)c(O)c1)c1cc(O)c(O)c(O)c1 [compound 12, (−)-gallocatechin 3-O-gallate] | – | 437 nM | showed lipase inhibitory activity | – |
| (−)-epiafzelechin 3-O-gallate [compound 1] | – | 2580 nM | – | – |
| (−)-epicatechin 3-O-gallate [compound 3] | – | 452 nM | showed lipase inhibitory activity | – |
| Oc1cc(O)c2c(c1)O[C@H](c1cc(O)c(O)c(O)c1)[C@@H](O)C2 [compound 11, (+)-gallocatechin] | – | > 20000 nM | – | – |
| O=C(O[C@@H]1Cc2c(O)cc3c(c2O[C@@H]1c1cc(O)c(O)c(O)c1)C1(O)C(=O)O[C@H]([C@@H](O)CO)C1(O)O3)c1cc(O)c(O)c(O)c1 (stereo partly drawn) [compound 15, 8-C-ascorbyl(−)-epigallocatechin 3-O-gallate] | – | 791 nM | – | – |
| O=C(O[C@@H]1Cc2c(O)cc(O)cc2O[C@@H]1c1cc(O)c(O)c(O)c1)c1cc(O)c(O)c(O)c1 [compound 6, (−)-epigallocatechin 3-O-gallate] | – | 349 nM | showed lipase inhibitory activity; also recorded: showed the strongest activity among these catechins | – |
| Oc1cc(O)c2c(c1)O[C@H](c1ccc(O)c(O)c1)[C@H](O)C2 [compound 2, (−)-epicatechin] | – | > 20000 nM | – | – |
| COc1cc(C(=O)O[C@@H]2Cc3c(O)cc(O)cc3O[C@@H]2c2ccc(O)c(O)c2)cc(O)c1O [compound 4, (−)-epicatechin 3-O-(3′-O-methyl-gallate)] | – | 680 nM | – | – |
| O=C(/C=C/c1ccc(O)cc1)O[C@@H]1Cc2c(O)cc(O)cc2O[C@@H]1c1cc(O)c(O)c(O)c1 [compound 8, (−)-epigallocatechin 3-O-p-coumaroate] | – | 885 nM | – | – |
| Oc1cc(O)c2c(c1)O[C@H](c1cc(O)c(O)c(O)c1)[C@H](O)C2 [compound 5, (−)-epigallocatechin] | – | > 20000 nM | – | – |
| O=C1O[C@H]([C@@H](O)CO)C2(O)Oc3cc(O)c4c(c3C12O)O[C@H](c1cc(O)c(O)c(O)c1)[C@H](O)C4 (stereo partly drawn) [compound 14, 8-C-ascorbyl(−)-epigallocatechin] | – | 646 nM | – | – |
| O=C(O[C@@H]1Cc2c(O)cc(O)cc2O[C@H]1c1ccc(O)c(O)c1)c1cc(O)c(O)c(O)c1 [compound 10, (−)-catechin 3-O-gallate] | – | 543 nM | showed lipase inhibitory activity | – |
